Test results taken from ChEMBL document CHEMBL1649275, “Alterations in two-component regulatory systems of phoPQ and pmrAB are associated with polymyxin B resistance in clinical isolates of Pseudomonas aeruginosa” (2009).
Values after ≈ are worked out from the molar mass of the structure shown.

Key:
[1] = tested on: Pseudomonas aeruginosa; test: Antibacterial activity against Pseudomonas aeruginosa PAO1 by broth dilution method; assay type: functional
[2] = tested on: Pseudomonas aeruginosa; test: Antibacterial activity against Pseudomonas aeruginosa NY214 by broth dilution method; assay type: functional
[3] = tested on: Pseudomonas aeruginosa; test: Antibacterial activity against Pseudomonas aeruginosa NY215 by broth dilution method; assay type: functional
[4] = tested on: Pseudomonas aeruginosa; test: Antibacterial activity against Pseudomonas aeruginosa NY217 by broth dilution method; assay type: functional
[5] = tested on: Pseudomonas aeruginosa; test: Antibacterial activity against Pseudomonas aeruginosa NY219 by broth dilution method; assay type: functional
[6] = tested on: Pseudomonas aeruginosa; test: Antibacterial activity against Pseudomonas aeruginosa NY220 by broth dilution method; assay type: functional
[7] = tested on: Pseudomonas aeruginosa; test: Antibacterial activity against Pseudomonas aeruginosa NY214 harboring Pseudomonas aeruginosa PAO1 phoPQ gene by broth dilution method; assay type: functional, organism-based
[8] = tested on: Pseudomonas aeruginosa; test: Antibacterial activity against Pseudomonas aeruginosa NY215 harboring Pseudomonas aeruginosa PAO1 phoPQ gene by broth dilution method; assay type: functional, organism-based
[9] = tested on: Pseudomonas aeruginosa; test: Antibacterial activity against Pseudomonas aeruginosa NY217 harboring Pseudomonas aeruginosa PAO1 phoPQ gene by broth dilution method; assay type: functional, organism-based
[10] = tested on: Pseudomonas aeruginosa; test: Antibacterial activity against Pseudomonas aeruginosa NY219 harboring Pseudomonas aeruginosa PAO1 phoPQ gene by broth dilution method; assay type: functional, organism-based
[11] = tested on: Pseudomonas aeruginosa; test: Antibacterial activity against Pseudomonas aeruginosa NY220 harboring Pseudomonas aeruginosa PAO1 phoPQ gene by broth dilution method; assay type: functional, organism-based
[12] = tested on: Pseudomonas aeruginosa; test: Antibacterial activity against Pseudomonas aeruginosa NY214 harboring Pseudomonas aeruginosa PAO1 pmrAB gene by broth dilution method; assay type: functional, organism-based
[13] = tested on: Pseudomonas aeruginosa; test: Antibacterial activity against Pseudomonas aeruginosa NY215 harboring Pseudomonas aeruginosa PAO1 pmrAB gene by broth dilution method; assay type: functional, organism-based
[14] = tested on: Pseudomonas aeruginosa; test: Antibacterial activity against Pseudomonas aeruginosa NY217 harboring Pseudomonas aeruginosa PAO1 pmrAB gene by broth dilution method; assay type: functional, organism-based
[15] = tested on: Pseudomonas aeruginosa; test: Antibacterial activity against Pseudomonas aeruginosa NY219 harboring Pseudomonas aeruginosa PAO1 pmrAB gene by broth dilution method; assay type: functional, organism-based
[16] = tested on: Pseudomonas aeruginosa; test: Antibacterial activity against Pseudomonas aeruginosa NY220 harboring Pseudomonas aeruginosa PAO1 pmrAB gene by broth dilution method; assay type: functional, organism-based
[17] = tested on: Pseudomonas aeruginosa; test: Antibacterial activity against Pseudomonas aeruginosa NY214 harboring pUCP18 by broth dilution method; assay type: functional, organism-based
[18] = tested on: Pseudomonas aeruginosa; test: Antibacterial activity against Pseudomonas aeruginosa NY215 harboring pUCP18 by broth dilution method; assay type: functional, organism-based
[19] = tested on: Pseudomonas aeruginosa; test: Antibacterial activity against Pseudomonas aeruginosa NY217 harboring pUCP18 by broth dilution method; assay type: functional, organism-based
[20] = tested on: Pseudomonas aeruginosa; test: Antibacterial activity against Pseudomonas aeruginosa NY219 harboring pUCP18 by broth dilution method; assay type: functional, organism-based
[21] = tested on: Pseudomonas aeruginosa; test: Antibacterial activity against Pseudomonas aeruginosa NY220 harboring pUCP18 by broth dilution method; assay type: functional, organism-based
[22] = tested on: Pseudomonas aeruginosa; test: Antibacterial activity against Pseudomonas aeruginosa PAO1 harboring deltaoprH-phoPQ::Gm by broth dilution method; assay type: functional, organism-based
[23] = tested on: Pseudomonas aeruginosa; test: Antibacterial activity against Pseudomonas aeruginosa PAO1 harboring Pseudomonas aeruginosa PAO1 deltaoprH-phoPQ::Gm/pAU124 by broth dilution method; assay type: functional, organism-based
[24] = tested on: Pseudomonas aeruginosa; test: Antibacterial activity against Pseudomonas aeruginosa PAO1 harboring Pseudomonas aeruginosa NY214 deltaoprH-phoPQ::Gm/pAU146 by broth dilution method; assay type: functional, organism-based
[25] = tested on: Pseudomonas aeruginosa; test: Antibacterial activity against Pseudomonas aeruginosa PAO1 harboring Pseudomonas aeruginosa NY215 deltaoprH-phoPQ::Gm/pAU147 by broth dilution method; assay type: functional, organism-based
[26] = tested on: Pseudomonas aeruginosa; test: Antibacterial activity against Pseudomonas aeruginosa PAO1 harboring Pseudomonas aeruginosa NY217 deltaoprH-phoPQ::Gm/pAU148 by broth dilution method; assay type: functional, organism-based
[27] = tested on: Pseudomonas aeruginosa; test: Antibacterial activity against Pseudomonas aeruginosa PAO1 harboring Pseudomonas aeruginosa NY219 deltaoprH-phoPQ::Gm/pAU149 by broth dilution method; assay type: functional, organism-based
[28] = tested on: Pseudomonas aeruginosa; test: Antibacterial activity against Pseudomonas aeruginosa PAO1 harboring deltaoprH-phoPQ::Gm/pUCP18 by broth dilution method; assay type: functional, organism-based
[29] = tested on: Pseudomonas aeruginosa; test: Antibacterial activity against Pseudomonas aeruginosa PAO1 harboring deltapmrAB::Tc by broth dilution method; assay type: functional, organism-based
[30] = tested on: Pseudomonas aeruginosa; test: Antibacterial activity against Pseudomonas aeruginosa PAO1 harboring Pseudomonas aeruginosa PAO1 deltapmrAB::Tc/pAU126 by broth dilution method; assay type: functional, organism-based
[31] = tested on: Pseudomonas aeruginosa; test: Antibacterial activity against Pseudomonas aeruginosa PAO1 harboring Pseudomonas aeruginosa NY220 deltapmrAB::Tc/pAU154 by broth dilution method; assay type: functional, organism-based
[32] = tested on: Pseudomonas aeruginosa; test: Antibacterial activity against Pseudomonas aeruginosa PAO1 harboring deltapmrAB::Tc/pUCP18 by broth dilution method; assay type: functional, organism-based
[33] = tested on: Pseudomonas aeruginosa; test: Antibacterial activity against Pseudomonas aeruginosa PAO1 harboring arnB::TC by broth dilution method; assay type: functional, organism-based
[34] = tested on: Pseudomonas aeruginosa; test: Antibacterial activity against Pseudomonas aeruginosa NY214 harboring arnB::TC by broth dilution method; assay type: functional, organism-based
[35] = tested on: Pseudomonas aeruginosa; test: Antibacterial activity against Pseudomonas aeruginosa NY215 harboring arnB::TC by broth dilution method; assay type: functional, organism-based
[36] = tested on: Pseudomonas aeruginosa; test: Antibacterial activity against Pseudomonas aeruginosa NY217 harboring arnB::TC by broth dilution method; assay type: functional, organism-based
[37] = tested on: Pseudomonas aeruginosa; test: Antibacterial activity against Pseudomonas aeruginosa NY220 harboring arnB::TC by broth dilution method; assay type: functional, organism-based

Question: For `CC1(C)S[C@@H]2[C@H](NC(=O)[C@H](NC(=O)N3CCNC3=O)c3ccccc3)C(=O)N2[C@H]1C(=O)O` [AZLOCILLIN], which MIC [1] is on record?
Answer: 2 µg/mL (≈ 4.33 µM)

Question: And the MIC [2]?
Answer: 8 µg/mL (≈ 17.3 µM)

Question: What about the MIC [3] of the same molecule?
Answer: 8 µg/mL (≈ 17.3 µM)

Question: And the MIC [4]?
Answer: 16 µg/mL (≈ 34.7 µM)

Question: What about the MIC [5] of the same molecule?
Answer: 8 µg/mL (≈ 17.3 µM)

Question: And the MIC [6]?
Answer: 16 µg/mL (≈ 34.7 µM)

Question: With `CC1(C)S[C@@H]2[C@H](NC(=O)C(C(=O)O)c3ccccc3)C(=O)N2[C@H]1C(=O)O` (stereo partly specified) [CARBENICILLIN] as the molecule, how does the MIC [1] read?
Answer: 64 µg/mL (≈ 169 µM)

Question: And the MIC [2]?
Answer: 256 µg/mL (≈ 677 µM)

Question: What about the MIC [3] of the same molecule?
Answer: 256 µg/mL (≈ 677 µM)

Question: What about the MIC [4] of the same molecule?
Answer: > 256 µg/mL

Question: And the MIC [5]?
Answer: 256 µg/mL (≈ 677 µM)

Question: And the MIC [6]?
Answer: > 256 µg/mL

Question: With `CO/N=C(\C(=O)N[C@@H]1C(=O)N2C(C(=O)O)=C(CSc3nc(=O)c(O)nn3C)CS[C@H]12)c1csc(N)n1` [CEFTRIAXONE] as the molecule, how does the MIC [1] read?
Answer: 4 µg/mL (≈ 7.21 µM)

Question: And the MIC [2]?
Answer: 16 µg/mL (≈ 28.9 µM)

Question: And the MIC [3]?
Answer: 32 µg/mL (≈ 57.7 µM)

Question: And the MIC [4]?
Answer: 16 µg/mL (≈ 28.9 µM)

Question: What about the MIC [5] of the same molecule?
Answer: 32 µg/mL (≈ 57.7 µM)

Question: What about the MIC [6] of the same molecule?
Answer: 32 µg/mL (≈ 57.7 µM)

Question: With `O=C(O)c1cn(C2CC2)c2cc(N3CCNCC3)c(F)cc2c1=O` [CIPROFLOXACIN] as the molecule, how does the MIC [3] read?
Answer: 4 µg/mL (≈ 12.1 µM)

Question: What about the MIC [4] of the same molecule?
Answer: 1 µg/mL (≈ 3.02 µM)

Question: Which MIC [1] does the source give for `CCn1cc(C(=O)O)c(=O)c2ccc(C)nc21` [NALIDIXIC ACID] here?
Answer: 64 µg/mL (≈ 276 µM)

Question: And the MIC [2]?
Answer: > 256 µg/mL

Question: And the MIC [3]?
Answer: > 256 µg/mL

Question: And the MIC [4]?
Answer: 64 µg/mL (≈ 276 µM)

Question: And the MIC [5]?
Answer: 64 µg/mL (≈ 276 µM)

Question: What about the MIC [6] of the same molecule?
Answer: > 256 µg/mL

Question: What does the source list for `CC1(C)S[C@@H]2[C@H](NC(=O)[C@H](C(=O)O)c3ccsc3)C(=O)N2[C@H]1C(=O)O` [TICARCILLIN]?
Answer: MIC [1]: 8 µg/mL (≈ 20.8 µM); MIC [2]: 32 µg/mL (≈ 83.2 µM); MIC [3]: 32 µg/mL (≈ 83.2 µM); MIC [4]: 32 µg/mL (≈ 83.2 µM); MIC [5]: 32 µg/mL (≈ 83.2 µM); MIC [6]: 32 µg/mL (≈ 83.2 µM)

Question: How did the MIC [1] turn out when `NC[C@H]1O[C@H](O[C@H]2[C@H](O)[C@@H](O[C@H]3O[C@H](CO)[C@@H](O)[C@H](N)[C@H]3O)[C@H](N)C[C@@H]2N)[C@H](N)C[C@@H]1O` [TOBRAMYCIN] was run?
Answer: 0.25 µg/mL (≈ 0.535 µM)

Question: And the MIC [2]?
Answer: 2 µg/mL (≈ 4.28 µM)

Question: What about the MIC [3] of the same molecule?
Answer: 2 µg/mL (≈ 4.28 µM)

Question: And the MIC [4]?
Answer: 1 µg/mL (≈ 2.14 µM)

Question: And the MIC [5]?
Answer: 2 µg/mL (≈ 4.28 µM)

Question: What about the MIC [6] of the same molecule?
Answer: 8 µg/mL (≈ 17.1 µM)

Question: How did the MIC [1] turn out when GENTAMICIN was run?
Answer: 0.25 µg/mL

Question: What about the MIC [2] of the same molecule?
Answer: 4 µg/mL

Question: And the MIC [3]?
Answer: 32 µg/mL

Question: And the MIC [4]?
Answer: 4 µg/mL

Question: And the MIC [5]?
Answer: 4 µg/mL

Question: What about the MIC [6] of the same molecule?
Answer: 4 µg/mL

Question: Which MIC [1] does the source give for POLYMYXIN B here?
Answer: 0.5 µg/mL

Question: And the MIC [2]?
Answer: 8 µg/mL

Question: What about the MIC [3] of the same molecule?
Answer: 8 µg/mL

Question: And the MIC [4]?
Answer: 8 µg/mL

Question: What about the MIC [5] of the same molecule?
Answer: 8 µg/mL

Question: And the MIC [6]?
Answer: 8 µg/mL

Question: And the MIC [7]?
Answer: 1 µg/mL

Question: What about the MIC [8] of the same molecule?
Answer: 0.5 µg/mL

Question: And the MIC [9]?
Answer: 1 µg/mL

Question: And the MIC [10]?
Answer: 1 µg/mL

Question: And the MIC [11]?
Answer: 8 µg/mL

Question: What about the MIC [12] of the same molecule?
Answer: 1 µg/mL

Question: And the MIC [13]?
Answer: 0.5 µg/mL

Question: What about the MIC [14] of the same molecule?
Answer: 1 µg/mL

Question: And the MIC [15]?
Answer: 1 µg/mL

Question: What about the MIC [16] of the same molecule?
Answer: 8 µg/mL

Question: What about the MIC [17] of the same molecule?
Answer: 8 µg/mL

Question: And the MIC [18]?
Answer: 8 µg/mL

Question: What about the MIC [19] of the same molecule?
Answer: 8 µg/mL

Question: And the MIC [20]?
Answer: 8 µg/mL

Question: And the MIC [21]?
Answer: 8 µg/mL

Question: What about the MIC [22] of the same molecule?
Answer: 0.5 µg/mL

Question: And the MIC [23]?
Answer: 0.25 µg/mL

Question: What about the MIC [24] of the same molecule?
Answer: 4 µg/mL

Question: What about the MIC [25] of the same molecule?
Answer: 4 µg/mL

Question: And the MIC [26]?
Answer: 4 µg/mL

Question: What about the MIC [27] of the same molecule?
Answer: 4 µg/mL

Question: And the MIC [28]?
Answer: 0.25 µg/mL

Question: What about the MIC [29] of the same molecule?
Answer: 0.25 µg/mL

Question: What about the MIC [30] of the same molecule?
Answer: < 0.25 µg/mL

Question: And the MIC [31]?
Answer: 4 µg/mL

Question: What about the MIC [32] of the same molecule?
Answer: 0.25 µg/mL

Question: And the MIC [33]?
Answer: 0.5 µg/mL

Question: What about the MIC [34] of the same molecule?
Answer: 0.5 µg/mL

Question: And the MIC [35]?
Answer: 0.5 µg/mL

Question: And the MIC [36]?
Answer: 0.5 µg/mL

Question: And the MIC [37]?
Answer: 0.5 µg/mL
